Laboratory results reported in ChEMBL document CHEMBL4251552, “Synthesis of piperazine sulfonamide analogs as diabetic-II inhibitors and their molecular docking study” (Eur J Med Chem, 2017).

Biological target: T1, Pancreatic alpha-amylase (Sus scrofa, UniProt P00690)
T1 sequence (P00690 whole entry): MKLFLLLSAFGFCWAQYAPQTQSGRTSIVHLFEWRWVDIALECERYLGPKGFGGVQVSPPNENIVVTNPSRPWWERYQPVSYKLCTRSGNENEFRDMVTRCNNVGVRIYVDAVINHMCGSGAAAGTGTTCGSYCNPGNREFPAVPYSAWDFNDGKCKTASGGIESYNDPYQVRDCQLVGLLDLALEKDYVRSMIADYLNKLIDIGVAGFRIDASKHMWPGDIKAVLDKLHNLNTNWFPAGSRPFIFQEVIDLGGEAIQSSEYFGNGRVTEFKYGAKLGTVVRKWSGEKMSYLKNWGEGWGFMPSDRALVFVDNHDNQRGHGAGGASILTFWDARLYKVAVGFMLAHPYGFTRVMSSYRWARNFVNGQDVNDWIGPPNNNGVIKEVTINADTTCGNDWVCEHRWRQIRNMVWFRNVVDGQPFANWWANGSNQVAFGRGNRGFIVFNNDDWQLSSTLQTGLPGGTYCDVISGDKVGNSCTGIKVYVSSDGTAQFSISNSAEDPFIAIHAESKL
Assay: Inhibition of porcine pancreatic alpha-amylase using starch as substrate preincubated for 10 mins followed by substrate addition measured after 10 mins by dinitrosalicylic acid color reagent based assay

| SMILES | IC50 [nM] |
| --- | --- |
| Cc1ccc(CN2CCN(S(=O)(=O)c3ccc([N+](=O)[O-])cc3)CC2)cc1 | 2820 |
| COc1ccc(S(=O)(=O)N2CCN(Cc3ccc(C)cc3)CC2)cc1 | 2060 |
| Cc1ccc(CN2CCN(S(=O)(=O)c3cccc(Br)c3)CC2)cc1 | 3450 |
| Cc1ccc(CN2CCN(S(=O)(=O)c3ccc(Cl)cc3)CC2)cc1 | 2350 |
| Cc1ccc(CN2CCN(S(=O)(=O)c3ccccc3[N+](=O)[O-])CC2)cc1 | 3980 |
| Cc1ccc(CN2CCN(S(=O)(=O)c3cccc([N+](=O)[O-])c3)CC2)cc1 | 2750 |
| Cc1ccc(CN2CCN(S(=O)(=O)c3ccc(Br)cc3)CC2)cc1 | 2120 |
| Cc1ccc(CN2CCN(S(=O)(=O)c3ccc(F)cc3)CC2)cc1 | 1570 |
| Cc1ccc(CN2CCN(S(=O)(=O)c3ccc([N+](=O)[O-])cc3[N+](=O)[O-])CC2)cc1 | 2930 |
| Cc1ccc(CN2CCN(S(=O)(=O)c3ccc(C)cc3)CC2)cc1 | 2870 |

Now from value to compound:

| IC50 [nM] | SMILES |
| --- | --- |
| 3140 | Cc1ccc(CN2CCN(S(=O)(=O)c3ccc(Cl)cc3Cl)CC2)cc1 |
| 2880 | Cc1ccc(CN2CCN(S(=O)(=O)c3cc(Cl)ccc3Cl)CC2)cc1 |
| 2880 | Cc1ccc(CN2CCN(S(=O)(=O)c3ccccc3C)CC2)cc1 |
| 3560 | Cc1ccc(CN2CCN(S(=O)(=O)c3cc(Cl)cc(Cl)c3)CC2)cc1 |
| 3050 | Cc1ccc(CN2CCN(S(=O)(=O)c3ccccc3F)CC2)cc1 |
| 3520 | Cc1ccc(CN2CCN(S(=O)(=O)c3cc(Cl)c(Cl)cc3Cl)CC2)cc1 |
| 3200 | Cc1ccc(CN2CCN(S(=O)(=O)c3ccccc3Cl)CC2)cc1 |
| 2980 | Cc1ccc(CN2CCN(S(=O)(=O)c3ccc(Cl)c(Cl)c3)CC2)cc1 |
| 2670 | Cc1ccc(CN2CCN(S(=O)(=O)c3cccc(Cl)c3Cl)CC2)cc1 |
